# “Also recorded” adds a separate entry of the source.
# Tests used:
# [1] = biological target: T1, dopamine β-hydroxylase (DBH) (Bos taurus, UniProt P15101); assay: Dopamine β-hydroxylase (DBH) inhibitory activity in vitro, time-dependent inactivation (Table I); format: biochemical; conditions: for Ki: inhibition constant for inactivation of DBH; for Ki / kinact: tyramine substrate, pH 5, Kitz and Wilson; for kinact: rate of inactivation of DBH
# T1 sequence (P15101 1-610): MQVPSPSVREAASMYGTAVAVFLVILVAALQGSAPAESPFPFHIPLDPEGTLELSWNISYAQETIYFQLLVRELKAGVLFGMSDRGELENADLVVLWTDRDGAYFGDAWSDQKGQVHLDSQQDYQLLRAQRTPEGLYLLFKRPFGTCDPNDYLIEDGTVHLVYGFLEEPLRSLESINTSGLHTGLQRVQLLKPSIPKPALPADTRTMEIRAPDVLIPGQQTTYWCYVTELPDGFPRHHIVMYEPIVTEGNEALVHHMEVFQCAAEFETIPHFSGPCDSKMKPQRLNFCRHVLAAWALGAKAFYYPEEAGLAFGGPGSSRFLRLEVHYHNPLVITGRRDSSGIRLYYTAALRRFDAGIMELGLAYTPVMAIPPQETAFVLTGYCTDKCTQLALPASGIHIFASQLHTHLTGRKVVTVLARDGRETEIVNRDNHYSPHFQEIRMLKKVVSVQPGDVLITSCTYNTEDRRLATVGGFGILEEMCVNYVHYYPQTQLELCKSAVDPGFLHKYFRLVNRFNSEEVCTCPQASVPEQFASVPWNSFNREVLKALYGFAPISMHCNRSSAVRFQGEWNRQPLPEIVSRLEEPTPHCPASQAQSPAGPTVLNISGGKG
# Protocol: The dopamine β-hydroxylase inhibitory properties of the compounds of this invention can readily be determined by standard and well known procedures such as those procedures set forth in U.S. Pat. […] For example, determination of whether the DBH inhibition allows time-dependent kinetics is exemplified by the procedure wherein enzymatic oxygenation by DBH is determined in aqueous solution in the presence of molecular oxygen, an electron donor such as ascorbate, and the necessary cofactors for the enzyme at a pH of 5 and a temperature of 20°-40° C., preferably 37° C. The test compound is added at the desired concentration, and the system is incubated. At different time intervals, aliquots are taken and DBH activity is measured using tyramine as the substrate and the reaction followed by measuring the oxygen uptake using a polarographic electrode and an oxygen monitor by the method of S. May et al., J. Biol. Chem. 256, 2258 (1981). The inhibition constants for the inactivation of DBH by each compound are then determined by conventional procedures such as the method of Kitz and Wilson, J. Biol. Chem. 237, 3245 (1962). When the compounds shown in Table I were tested according to the above described procedure, the DBH inhibitory activity increased as a function of the time of incubation. The initial rate of decrease of activity increased with increasing concentration of inhibitor.
# [2] = tested on: Rat Brain - Mitochondrial MAO; assay: Time-dependant inhibition of rat brain mitochondrial MAO (Table III); format: biochemical
# Protocol: (§1) The compounds of this invention were conceived as mechanism-based inhibitors of DBH similar to that reported by S. May, J. Biol. Chem. 256, 2258 (1981). These compounds bear some resemblance to the catecholamines which are destroyed by the enzyme monoamine oxidase (MAO) in order to terminate neurotransmission. Because of their structural similarity to the catecholamines they may act as MAO substrates and, as such, act as k cat inhibitors of MAO. These compounds were evaluated as mechanism-based inhibitors of monooxygenasess by the method of A. Christmas et. al., Br. J. Pharmacol. 45, 490 (1972).
# MAO A = biological target: T2, MAO A (Rattus norvegicus, UniProt P21396); assay: Inhibition of rat brain mitochondrial MAO A (Table III); format: biochemical
# T2 construct: from tissue; host or cells: rat brain mitochondria
# T2 sequence (P21396 1-526): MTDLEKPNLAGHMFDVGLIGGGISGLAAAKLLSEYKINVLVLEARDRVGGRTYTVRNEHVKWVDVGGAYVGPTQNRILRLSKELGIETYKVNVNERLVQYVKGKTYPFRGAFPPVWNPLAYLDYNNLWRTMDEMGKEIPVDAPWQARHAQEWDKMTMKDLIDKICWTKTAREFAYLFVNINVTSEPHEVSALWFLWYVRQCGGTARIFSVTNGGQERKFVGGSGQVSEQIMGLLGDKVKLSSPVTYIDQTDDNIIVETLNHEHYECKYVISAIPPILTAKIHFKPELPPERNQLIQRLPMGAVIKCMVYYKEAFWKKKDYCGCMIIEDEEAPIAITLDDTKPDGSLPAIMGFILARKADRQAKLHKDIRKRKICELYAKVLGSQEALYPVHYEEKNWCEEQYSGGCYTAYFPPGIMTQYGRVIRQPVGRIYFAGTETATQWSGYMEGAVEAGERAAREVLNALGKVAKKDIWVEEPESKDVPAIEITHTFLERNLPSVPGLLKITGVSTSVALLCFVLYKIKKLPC
# Protocol: as §1
# hypertensive rats = assay: Antihypertensive activity in vivo in hypertensive rats (Table II); design: species or system rat
# Protocol: The ability of the compounds of this invention to lower blood pressure can be determined in vivo using hypertensive rats according to standard and well known procedures. The test compound is administered intraperitoneally (ip) or orally (po) to rats and the blood pressure monitored continuously. Since DBH is a major enzyme in the synthetic pathway of the catecholamines, it would be expected that the presence of an inhibitor would act to decrease the amount of catecholamines produced, and thereby have an antihypertensive effect.
# MAO B = biological target: T3, MAO B (Rattus norvegicus, UniProt P19643); assay: Inhibition of rat brain mitochondrial MAO B (Table III); format: biochemical
# T3 construct: from tissue; host or cells: rat brain mitochondria
# T3 sequence (P19643 1-520): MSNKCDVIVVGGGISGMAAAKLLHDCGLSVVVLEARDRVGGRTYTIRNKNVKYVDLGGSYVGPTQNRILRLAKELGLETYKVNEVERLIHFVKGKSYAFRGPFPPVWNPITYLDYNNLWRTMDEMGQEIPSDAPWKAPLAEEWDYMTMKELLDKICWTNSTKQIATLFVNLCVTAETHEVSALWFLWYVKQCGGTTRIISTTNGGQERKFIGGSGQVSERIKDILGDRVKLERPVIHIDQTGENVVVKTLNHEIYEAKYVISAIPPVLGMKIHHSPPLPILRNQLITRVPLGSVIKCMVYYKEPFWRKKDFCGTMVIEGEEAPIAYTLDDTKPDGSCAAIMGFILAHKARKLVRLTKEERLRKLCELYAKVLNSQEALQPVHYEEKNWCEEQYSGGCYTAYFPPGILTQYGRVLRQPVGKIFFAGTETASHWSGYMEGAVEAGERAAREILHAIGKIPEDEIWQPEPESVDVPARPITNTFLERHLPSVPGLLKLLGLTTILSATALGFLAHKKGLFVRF
# Protocol: as §1
# purified DBH = assay: Time-dependant inhibition of purified DBH (Table III); format: biochemical
# Protocol: The dopamine β-hydroxylase inhibitory properties of the compounds of this invention can readily be determined by standard and well known procedures such as those procedures set forth in U.S. Pat. No. 4,415,191. For example, determination of whether the DBH inhibition allows time-dependent kinetics is exemplified by the procedure wherein enzymatic oxygenation by DBH is determined in aqueous solution in the presence of molecular oxygen, an electron donor such as ascorbate, and the necessary cofactors for the enzyme at a pH of 5 and a temperature of 20°-40° C., preferably 37° C. The test compound is added at the desired concentration, and the system is incubated. At different time intervals, aliquots are taken and DBH activity is measured using tyramine as the substrate and the reaction followed by measuring the oxygen uptake using a polarographic electrode and an oxygen monitor by the method of S. May et al., J. Biol. Chem. 256, 2258 (1981). The inhibition constants for the inactivation of DBH by each compound are then determined by conventional procedures such as the method of Kitz and Wilson, J. Biol. Chem. 237, 3245 (1962). When the compounds shown in Table I were tested according to the above described procedure, the DBH inhibitory activity increased as a function of the time of incubation. […]
SMILES,"Relative DBH inhibitory potency of the isomers ([1]; 2- vs. 3-thiophene isomer, Table I)",Ki [1] [mM],kinact [1] [s⁻¹],MAO inhibition (in words) [2],Ki (MAO A) [µM],MAO A Tau50 (MAO A) [min],Maximum % Change Mean Blood Pressure (hypertensive rats; 10 mg/kg ip) [%],Maximum % Change Mean Blood Pressure (hypertensive rats; 30 mg/kg ip) [%],Maximum % Change Mean Blood Pressure (hypertensive rats; 50 mg/kg po) [%],Maximum % Change Mean Blood Pressure (hypertensive rats; 100 mg/kg ip) [%],Maximum % Change Mean Blood Pressure (hypertensive rats; 100 mg/kg po) [%],Maximum % Change Mean Blood Pressure (hypertensive rats; 200 mg/kg po) [%],Ki (MAO B) [µM],MAO B Tau50 (MAO B) [min],"Time-dependant inhibition t1/2 (purified DBH; 5.10^-5 M final concentration, purified DBH) [min]",DBH inhibitory activity (in words) (purified DBH; compared with MAO inhibition)
"C=C(CN)c1cccs1 [β-Methylene-2-Thiopheneethanamine, β-methylene-2-thiopheneethanamine]",the more potent isomer,2,0.000333,weak MAO inhibitory activity; also recorded: Weak time-dependant MAO inhibitor,320,2.6,11,22,11,52,14,14,110,4.9,7,potent DBH inhibitory activity
"C=C(CN)c1ccsc1 [β-Methylene-3-Thiopheneethanamine, β-methylene-3-thiopheneethanamine]",–,2,6.67e-05,–,–,–,–,–,–,–,–,–,–,–,–,–

# Reference: patent US4788301A, “Novel allylic amines” (Merrell Dow Pharmaceuticals Inc., priority 1987, dated 1988)
